This passage reports EC50 results from patent EP3741762A1, “OXALAMIDO-SUBSTITUTED TRICYCLIC INHIBITORS OF HEPATITIS B VIRUS” (priority 2019, dated 2020).

A value given as a limit tells only on which side of the number the result lay.

This experiment relates to HBV. In words: Anti-HBV activity in vitro: quantification of extracellular HBV DNA by direct qPCR in HepAD38 cells. The experiment is classed as cell-based. Particulars: Hepatitis B virus, tetracycline-free medium, 96 hours at 37°C, reported as EC50 threshold value, read-out: HBV inh EC50. From the text: HepAD38 cell line (Ladner et al., Antimicrob Agents Chemother, 1997, 41, 1715-20) was used for HBV inhibition assays. HepAD38 is a subclone, derived from Hepatoblastoma cell line HepG2 (ATCC® Number: HB-8065™), that expresses HBV genome under the transcriptional control of a tetracycline-responsive promoter in a TET-OFF system: addition of tetracycline (TET) or doxycycline suppresses HBV replication, while its removal switches on the process allowing HBV viral particles release in the cell supernatant. HepAD38 cell line is maintained in DMEM/F12, supplemented with 10% of fetal bovine serum, 1% of glutamine, 1% of penicillin/streptomycin, 0.4 mg/ml G418 and 0,3 ug/ml tetracycline. For the HBV inhibition assay, doxycycline-free medium is used in order to allow virion production.
HBV inhibition activity in vitro was performed in 96 multiwell plates. During the initial (primary) screening, compounds were first tested in triplicates at concentrations of 0.02 µM, 0.1 µM, 0.5µM and 1µM. For selected compounds, an 8-point dose-response curve was obtained using 1:2 serial dilutions (starting from 0.01µM, 0.1µM, 0.4µM or 5 µM, depending on the degree of inhibition observed during the primary screening). From the dose-response curves, half maximal effective concentration (EC50) could be calculated (see also below).
In more detail, compounds - typically dissolved in DMSO stock solutions - were diluted to 2x the final desired concentration in 100 µl of the above medium (without doxycycline) and plated in three replicates in the 96-well plates.
Simultaneously, HepAD38 cells - extensively pre-washed in tetracycline-free medium in order to induce HBV production - were suspended at 2^∗10^4 cells in 100 µl of tetracycline-free medium and added to each well of the plate, to yield a final assay volume of 200 µl DMSO - used for stock solutions and compounds dilutions - which was always present in the assays at a final concentration of 0.5%.
Plates were then incubated 96 hours at 37°C and then subjected to cell viability assays and extracellular HBV quantification, in order to evaluate both the cytotoxic potential and the antiviral activity of compounds. Cytotoxicity was assessed by a commercial fluorescence assay that measures the metabolic activity of cells, directly related to cell viability (Cell Titer Blue, Promega). Anti-HBV activity was evaluated by quantification of extracellular HBV DNA with direct qPCR. In particular, supernatant was collected and centrifuged for cell debris clarification, viral DNA was extracted from virions by addition of lysis buffer (1 mM 1,4-dithiothreitol, 0.2% sodium dodecyl sulphate) and incubated at 95°C for 10 min. Samples were then diluted 1:40 and real time PCR amplification was performed with SYBR green assay (Power SYBR™ Green PCR Master Mix-Thermo Fisher Scientific) and specific HBV primer (HBV-DF:5'-[…]-3' (SEQ ID No. 1), HBV-DR:5'-[…]-3' (SEQ ID No.2)).
Antiviral activity data for each compound are reported as EC50 threshold value (see Table 1 legend). Excel and Graphpad Prism programs are typically used for data elaboration and EC50 calculation.
Turning to `Cc1cc(NC(=O)c2c3c(cn2C)S(=O)(=O)N[C@H]2CN(C(=O)C(=O)NCC4CC4)C[C@H]2CO3)ccc1F` [Example E20, (3aR,10aR)-2-(2-((cyclopropylmethyl)amino)-2-oxoacetyl)-N-(4-fluoro-3-methylphenyl)-7-methyl-2,3,3a,4,10,10a-hexahydro-1H,7H-dipyrrolo[3,4-b:3',4'-f][1,4,5]oxathiazocine-8-carboxamide 5,5-dioxide], the EC50 is less than 500 nM. In the case of `Cc1cc(NC(=O)c2c3c(cn2C)S(=O)(=O)N[C@H]2CN(C(=O)C(=O)NC4CCC4)C[C@H]2CO3)ccc1F` [Example E22, (3aR,10aR)-2-(2-(cyclobutylamino)-2-oxoacetyl)-N-(4-fluoro-3-methylphenyl)-7-methyl-2,3,3a,4,10,10a-hexahydro-1H,7H-dipyrrolo[3,4-b:3',4'-f][1,4,5]oxathiazocine-8-carboxamide 5,5-dioxide] it was less than 500 nM; in that of `Cc1cc(NC(=O)c2c3c(cn2C)S(=O)(=O)N[C@@H]2CN(C(=O)C(=O)NC4(C)COC4)C[C@@H]2CO3)ccc1F` (relative stereo) [Example E2, cis-N-(4-fluoro-3-methylphenyl)-7-methyl-2-(2-((3-methyloxetan-3-yl)amino)-2-oxoacetyl)-2,3,3a,4,10,10a-hexahydro-1H,7H-dipyrrolo[3,4-b:3',4'-f][1,4,5]oxathiazocine-8-carboxamide 5,5-dioxide], less than 500 nM; in that of `Cc1cc(NC(=O)c2c3c(cn2C)S(=O)(=O)N[C@H]2CN(C(=O)C(=O)N[C@H](C)C(F)(F)F)C[C@H]2CO3)ccc1F` [Example E9, (3aR,10aR)-N-(4-fluoro-3-methylphenyl)-7-methyl-2-(2-oxo-2-(((R)-1,1,1-trifluoropropan-2-yl)amino)acetyl)-2,3,3a,4,10,10a-hexahydro-1H,7H-dipyrrolo[3,4-b:3',4'-f][1,4,5]oxathiazocine-8-carboxamide 5,5-dioxide], less than 500 nM.

For the compound `Cc1cc(NC(=O)c2c3c(cn2C)S(=O)(=O)N[C@H]2CN(C(=O)C(=O)NC(C)C)C[C@H]2CO3)ccc1F` [Example E21, (3aR,10aR)-N-(4-fluoro-3-methylphenyl)-2-(2-(isopropylamino)-2-oxoacetyl)-7-methyl-2,3,3a,4,10,10a-hexahydro-1H,7H-dipyrrolo[3,4-b:3',4'-f][1,4,5]oxathiazocine-8-carboxamide 5,5-dioxide], the EC50 was less than 500 nM. In the case of `Cn1cc2c(c1C(=O)Nc1cc(F)c(F)c(F)c1)OC[C@H]1CN(C(=O)C(N)=O)C[C@H]1NS2(=O)=O` (relative stereo) [Example E13, cis-2-(2-amino-2-oxoacetyl)-7-methyl-N-(3,4,5-trifluorophenyl)-2,3,3a,4,10,10a-hexahydro-1H,7H-dipyrrolo[3,4-b:3',4'-f][1,4,5]oxathiazocine-8-carboxamide 5,5-dioxide] it was less than 500 nM.

Take `Cc1cc(NC(=O)c2c3c(cn2C)S(=O)(=O)N[C@H]2CN(C(=O)C(=O)NCC(C)C)C[C@H]2CO3)ccc1F` [Example E16, (3aR,10aR)-N-(4-fluoro-3-methylphenyl)-2-(2-(isobutylamino)-2-oxoacetyl)-7-methyl-2,3,3a,4,10,10a-hexahydro-1H,7H-dipyrrolo[3,4-b:3',4'-f][1,4,5]oxathiazocine-8-carboxamide 5,5-dioxide]: the half-maximal effective concentration (EC50) was less than 500 nM.

`Cc1cc(NC(=O)c2c3c(cn2C)S(=O)(=O)N[C@H]2CN(C(=O)C(=O)NC(C)(C)C(F)(F)F)C[C@H]2CO3)ccc1F` [Example E32, (3aR,10aR)-N-(4-fluoro-3-methylphenyl)-7-methyl-2-(2-oxo-2-((1,1,1-trifluoro-2-methylpropan-2-yl)amino)acetyl)-2,3,3a,4,10,10a-hexahydro-1H,7H-dipyrrolo[3,4-b:3',4'-f][1,4,5]oxathiazocine-8-carboxamide 5,5-dioxide]: the EC50 is less than 500 nM.

Take `Cc1cc(NC(=O)c2c3c(cn2C)S(=O)(=O)N[C@H]2CN(C(=O)C(=O)NC4(C)COC4)C[C@H]2CS3)ccc1F` [Example E42, (3aR,10aR)-N-(4-fluoro-3-methylphenyl)-7-methyl-2-(2-((3-methyloxetan-3-yl)amino)-2-oxoacetyl)-2,3,3a,4,10,10a-hexahydro-1H,7H-dipyrrolo[3,4-c:3',4'-g][1,6,2]dithiazocine-8-carboxamide 5,5-dioxide]: the EC50 is less than 500 nM. Then `CNC(=O)C(=O)N1C[C@@H]2COc3c(cn(C)c3C(=O)Nc3cc(F)c(F)c(F)c3)S(=O)(=O)N[C@@H]2C1` (relative stereo) [Example E12, cis-7-methyl-2-(2-(methylamino)-2-oxoacetyl)-N-(3,4,5-trifluorophenyl)-2,3,3a,4,10,10a-hexahydro-1H,7H-dipyrrolo[3,4-b:3',4'-f][1,4,5]oxathiazocine-8-carboxamide 5,5-dioxide], with less than 500 nM; and `Cc1cc(NC(=O)c2c3c(cn2C)S(=O)(=O)N[C@H]2CN(C(=O)C(=O)NC4CC(F)(F)C4)C[C@H]2CO3)ccc1F` [Example E14, (3aR,10aR)-2-(2-((3,3-difluorocyclobutyl)amino)-2-oxoacetyl)-N-(4-fluoro-3-methylphenyl)-7-methyl-2,3,3a,4,10,10a-hexahydro-1H,7H-dipyrrolo[3,4-b:3',4'-f][1,4,5]oxathiazocine-8-carboxamide 5,5-dioxide], with less than 500 nM; and `Cc1cc(NC(=O)c2c3c(cn2C)S(=O)(=O)N[C@H]2CN(C(=O)C(=O)NC4CC(F)(F)C4)C[C@H]2CS3)ccc1F` [Example E41, (3aR,10aR)-2-(2-((3,3-difluorocyclobutyl)amino)-2-oxoacetyl)-N-(4-fluoro-3-methylphenyl)-7-methyl-2,3,3a,4,10,10a-hexahydro-1H,7H-dipyrrolo[3,4-c:3',4'-g][1,6,2]dithiazocine-8-carboxamide 5,5-dioxide], with less than 500 nM.
